Laboratory results published in PMC7612645 (2021).

Tested on: US (RNA, single strand) UUUUUACCUAUCUCUUUUUCUCU
Test: SPR
Settings: 250 mM NaCl; 20 mM HEPES pH 7.5, 2% DMSO, 0.1% Tween20, 37 °C; trace shown at 40 nM compound

binding: no
Structure (SMILES): Cc1nc2nc(CN)nn2c(C)c1CCC(=O)Nc1ccc(F)c(Cl)c1
